Patent US20260223850A1, “SUBSTITUTED PYRROLIDONE COMPOUND, PREPARATION METHOD THEREFOR, COMPOSITION AND APPLICATION THEREOF” (QINGDAO KINGAGROOT CHEMICAL COMPOUND CO., LTD., priority 2023, published 2026)

Key:
Type in all cases: in vivo
Echinochloa crusgalli = test: Seedling stage sealing experiment for water-seeding; conditions: 120 g a.i./ha, 15 days, fresh weight control rate
Echinochloa phyllopogon = test: as above; conditions: 120 g a.i./ha, 15 days, fresh weight control rate
Procedure, shortened: (§1)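 Water-seeding seedling stage test: broadcast seeds, cover with soil, keep bowls moist in a water box; spray compound (acetone, diluted in water) at 120, 60, 30, 15 g a.i./ha; culture 15 d in greenhouse; grade 0–9 by fresh-weight growth control; mean of 3.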

Huaidao (rice cultivar) = test: Seedling stage sealing experiment for water-seeding (crop safety); conditions: 120 g a.i./ha, seedling stage sealing, 15 days, fresh weight control rate
Procedure, shortened: as §1

Leptochloa chinensis = test: Seedling stage sealing experiment for water-seeding; conditions: 120 g a.i./ha, 15 days, fresh weight control rate
Procedure, shortened: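 Seeds sown in soil-filled bowls kept moist in water-filled boxes; compound in acetone diluted with water and spray-applied at 120, 60, 30 and 15 g a.i./ha, triplicate. After 15 days in greenhouse, fresh-weight growth control scored on a 0–9 scale (9 = dead, 0 = no effect), averaged.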

Digitaria sanguinalis = test: as above; conditions: 120 g a.i./ha, 15 days, fresh weight control rate
Procedure, shortened: as §1

[1] = spray, seedling stage sealing for water-seeding

Row | Structure (SMILES) | Echinochloa crusgalli activity level (growth control rate) (Echinochloa crusgalli; seedling stage sealing) | Echinochloa phyllopogon activity level (growth control rate) (Echinochloa phyllopogon; seedling stage sealing) | Huaidao (rice cultivar) plant damage level (Huaidao (rice cultivar)) | Leptochloa chinensis activity level (growth control rate) (Leptochloa chinensis) | Digitaria sanguinalis activity level (growth control rate) (Digitaria sanguinalis; [1]) | Echinochloa crusgalli activity level (growth control rate) (Echinochloa crusgalli; [1]) | Echinochloa phyllopogon activity level (growth control rate) (Echinochloa phyllopogon; [1]) | Digitaria sanguinalis activity level (growth control rate) (Digitaria sanguinalis; seedling stage sealing)
1 | Cc1cccc([C@H]2CN(C)C(=O)[C@@H]2C(=O)Nc2cnn(C)c2Cl)c1 [17′] | 9 | 6 (Level 6: growth control rate greater than or equal to 70% and less than 80%) | 0 | 9 | – | – | – | –
2 | CN1C[C@H](c2cccc(C(F)(F)F)c2)[C@@H](C(=O)Nc2cnn(C)c2C(F)(F)F)C1=O [538′] | – | – | – | – | 9 | 9 | 9 | –
3 | CCc1c(NC(=O)[C@H]2C(=O)N(C)C[C@@H]2c2cc(C)cc(C)c2)cnn1C(F)F [544′] | – | – | – | – | 9 | 9 | 9 | –
4 | COCn1ncc(NC(=O)[C@H]2C(=O)N(C)C[C@@H]2c2cc(C)cc(C)c2)c1C1CC1 [549′] | – | – | – | – | 9 | 9 | 9 | –
5 | CN1C[C@H](c2cc(Br)cc(C(F)(F)F)c2)[C@@H](C(=O)Nc2cnn(C(F)F)c2Cl)C1=O [557′] | – | – | – | – | 9 | 9 | 6 (Level 6: growth control rate greater than or equal to 70% and less than 80%) | –
6 | CN1CC(c2cccc(C(F)(F)F)c2)C(C(=O)Nc2cnn(C)c2Cl)C1=O (stereo not drawn) [Compound 1] | 9 | 9 | – | – | – | – | – | 9
7 | CN1CC(c2cccc(F)c2)C(C(=O)Nc2cnn(C)c2Cl)C1=O (stereo not drawn) [Compound 15] | 9 | 6 (Level 6: growth control rate greater than or equal to 70% and less than 80%) | – | – | – | – | – | 9
8 | C=CCOc1cccc(C2CN(C)C(=O)C2C(=O)Nc2cnn(C)c2Cl)c1 (stereo not drawn) [Compound 30] | 9 | 9 | – | – | – | – | – | 9
9 | CN1CC(c2ccc(F)c(C(F)(F)F)c2)C(C(=O)Nc2cnn(C)c2Cl)C1=O (stereo not drawn) [Compound 54] | 9 | 9 | 0 | 9 | – | – | – | –
10 | CN1CC(c2cc(F)cc(C(F)(F)F)c2)C(C(=O)Nc2cnn(C)c2Cl)C1=O (stereo not drawn) [Compound 67] | 9 | 6 (Level 6: growth control rate greater than or equal to 70% and less than 80%) | – | 9 | – | – | – | –
11 | CN1CC(c2cc(C(F)(F)F)ccc2F)C(C(=O)Nc2cnn(C)c2Cl)C1=O (stereo not drawn) [Compound 80] | 6 (Level 6: growth control rate greater than or equal to 70% and less than 80%) | 6 (Level 6: growth control rate greater than or equal to 70% and less than 80%) | – | 6 (Level 6: growth control rate greater than or equal to 70% and less than 80%) | – | – | – | –
12 | CCn1ncc(NC(=O)C2C(=O)N(C)CC2c2cccc(C(F)(F)F)c2)c1Cl (stereo not drawn) [Compound 95] | 6 (Level 6: growth control rate greater than or equal to 70% and less than 80%) | 6 (Level 6: growth control rate greater than or equal to 70% and less than 80%) | – | 9 | – | – | – | –
13 | CC(C)n1ncc(NC(=O)C2C(=O)N(C)CC2c2cccc(C(F)(F)F)c2)c1Cl (stereo not drawn) [Compound 97] | 9 | 7 (Level 7: growth control rate greater than or equal to 80% and less than 90%) | – | 9 | – | – | – | –
14 | CN1CC(c2cc(F)cc(F)c2)C(C(=O)Nc2cnn(C)c2Cl)C1=O (stereo not drawn) [Compound 115] | 9 | 6 (Level 6: growth control rate greater than or equal to 70% and less than 80%) | – | 6 (Level 6: growth control rate greater than or equal to 70% and less than 80%) | – | – | – | –
15 | CN1CC(c2ccccc2)C(C(=O)Nc2cnn(C)c2Cl)C1=O (stereo not drawn) [Compound 121] | 9 | 9 | 0 | 6 (Level 6: growth control rate greater than or equal to 70% and less than 80%) | – | – | – | –
16 | CN1CC(c2cccc(Br)c2)C(C(=O)Nc2cnn(C)c2Cl)C1=O (stereo not drawn) [Compound 126] | 7 (Level 7: growth control rate greater than or equal to 80% and less than 90%) | 7 (Level 7: growth control rate greater than or equal to 80% and less than 90%) | – | 9 | – | – | – | –
17 | CN1CC(c2cccc(C(F)(F)F)c2)C(C(=O)Nc2cnn(C3CC3)c2Cl)C1=O (stereo not drawn) [Compound 164] | 7 (Level 7: growth control rate greater than or equal to 80% and less than 90%) | 6 (Level 6: growth control rate greater than or equal to 70% and less than 80%) | – | 9 | – | – | – | –
18 | Cc1cc(C)cc(C2CN(C)C(=O)C2C(=O)Nc2c(O)nn(C)c2F)c1 (stereo not drawn) [Compound 286] | 9 | 7 (Level 7: growth control rate greater than or equal to 80% and less than 90%) | – | 9 | – | – | – | –
19 | CN1CC(c2ccc(F)cc2F)C(C(=O)Nc2cnn(C)c2Cl)C1=O (stereo not drawn) [Compound 304] | 7 (Level 7: growth control rate greater than or equal to 80% and less than 90%) | 6 (Level 6: growth control rate greater than or equal to 70% and less than 80%) | – | 5 (Level 5: growth control rate greater than or equal to 50% and less than 70%) | – | – | – | –
20 | COc1cccc(C2CN(C)C(=O)C2C(=O)Nc2cnn(C)c2Cl)c1F (stereo not drawn) [Compound 307] | 6 (Level 6: growth control rate greater than or equal to 70% and less than 80%) | 6 (Level 6: growth control rate greater than or equal to 70% and less than 80%) | – | 5 (Level 5: growth control rate greater than or equal to 50% and less than 70%) | – | – | – | –
21 | CN1CC(c2ccc(Cl)c(Cl)c2)C(C(=O)Nc2cnn(C)c2Cl)C1=O (stereo not drawn) [Compound 309] | 6 (Level 6: growth control rate greater than or equal to 70% and less than 80%) | 5 (Level 5: growth control rate greater than or equal to 50% and less than 70%) | – | 9 | – | – | – | –
22 | CN1CC(c2ccc(F)c(Cl)c2)C(C(=O)Nc2cnn(C)c2Cl)C1=O (stereo not drawn) [Compound 310] | 9 | 8 (Level 8: growth control rate greater than or equal to 90% and less than 100%) | – | 9 | – | – | – | –
23 | Cc1ccc(C2CN(C)C(=O)C2C(=O)Nc2cnn(C)c2Cl)cc1C (stereo not drawn) [Compound 314] | 7 (Level 7: growth control rate greater than or equal to 80% and less than 90%) | 6 (Level 6: growth control rate greater than or equal to 70% and less than 80%) | – | 9 | – | – | – | –
24 | COc1cc(C2CN(C)C(=O)C2C(=O)Nc2cnn(C)c2Cl)ccc1F (stereo not drawn) [Compound 320] | 6 (Level 6: growth control rate greater than or equal to 70% and less than 80%) | 6 (Level 6: growth control rate greater than or equal to 70% and less than 80%) | – | 5 (Level 5: growth control rate greater than or equal to 50% and less than 70%) | – | – | – | –
25 | COc1cc(C2CN(C)C(=O)C2C(=O)Nc2cnn(C)c2Cl)ccc1C (stereo not drawn) [Compound 321] | 5 (Level 5: growth control rate greater than or equal to 50% and less than 70%) | 5 (Level 5: growth control rate greater than or equal to 50% and less than 70%) | – | 6 (Level 6: growth control rate greater than or equal to 70% and less than 80%) | – | – | – | –
26 | CN1CC(c2cc(F)c(F)c(F)c2)C(C(=O)Nc2cnn(C)c2F)C1=O (stereo not drawn) [Compound 323] | 5 (Level 5: growth control rate greater than or equal to 50% and less than 70%) | 5 (Level 5: growth control rate greater than or equal to 50% and less than 70%) | – | 6 (Level 6: growth control rate greater than or equal to 70% and less than 80%) | – | – | – | –
27 | CN1CC(c2cc(F)c(F)c(F)c2)C(C(=O)Nc2c(O)nn(C)c2F)C1=O (stereo not drawn) [Compound 324] | 7 (Level 7: growth control rate greater than or equal to 80% and less than 90%) | 7 (Level 7: growth control rate greater than or equal to 80% and less than 90%) | – | 9 | – | – | – | –
28 | COc1c(Cl)ccc(C2CN(C)C(=O)C2C(=O)Nc2c(O)nn(C)c2F)c1F (stereo not drawn) [Compound 331] | 9 | 7 (Level 7: growth control rate greater than or equal to 80% and less than 90%) | – | 9 | – | – | – | –
